Experimental data taken from PubChem BioAssay (NCI).
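Test compounds were applied to cells in 96-well plates for 48 hours at 5 doses. The concentration for 50% growth inhibition is given as GI50. TGI is the concentration that stops growth completely.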 Where a SMILES comes first, the peptide text is derived from it. [ ]: non-standard residue; d: D form. The star is where a group is joined. ξ: configuration not given here. NMeY = CN[C@@H](Cc1ccc(O)cc1)C(=O)O; Cbz = O=C(OCc1ccccc1)*; ξA = CC(N)C(=O)O

Experiments:
Assay in all cases: NCI anticancer screen, dose series, 48 h
[1] = tested on: LOX IMVI melanoma
[2] = tested on: EKVX NSCLC
[3] = tested on: A549 NSCLC
[4] = tested on: RPMI-8226 leukemia
[5] = tested on: K-562 leukemia
[6] = tested on: A498 renal
[7] = tested on: DMS 273 small cell lung
[8] = tested on: M19-MEL melanoma
[9] = tested on: SNB-78 CNS

SMILES	TGI [1]	TGI [2]	TGI [3]	TGI [4]	TGI [5]	TGI [6]	TGI [7]	TGI [8]	TGI [9]	GI50 [7]	GI50 [9]	GI50 [6]
N#CCCC1(CCC#N)S(=O)(=O)OCCOS1(=O)=O	> 100 µM	> 100 µM	> 100 µM	> 100 µM								
CCC1(c2ccc(OC)c(OC)c2)CCN(S(=O)(=O)c2ccc(C)cc2)C1 (configuration not stated)	> 100 µM	> 100 µM	> 100 µM		> 10 µM							
COc1ccc2nc3c4c(nccc4c2c1)-c1ncccc1C3=O	0.0977 µM	0.903 µM	0.338 µM	0.236 µM	0.174 µM	0.224 µM						
O=c1[nH][nH]c(=O)n1Cc1ccccc1	> 100 µM	> 100 µM	> 100 µM	> 100 µM	> 100 µM	> 100 µM						
Cc1cc(C)c(NS(=O)c2ccc(Cl)cc2)c(C)c1 (configuration not stated)		> 100 µM	> 100 µM	> 100 µM	> 100 µM	> 100 µM						
COC(=O)c1cc(/C=C/C(=O)Cc2ccccc2)cn1S(=O)(=O)c1ccccc1	> 100 µM	> 100 µM	> 100 µM		> 100 µM							
C1=NN2C(c3ccccc3)=NOC2C2C(c3ccccc3)=NOC12 (configuration not stated)	> 100 µM	> 100 µM	> 100 µM									
Cc1c2c(n3c(nc4ccccc43)c1C#N)N(c1ccc(F)cc1)CC2	> 100 µM		> 100 µM			> 100 µM						
CC(C)N(C(C)C)S(=O)(=O)CC12CCC(C/C1=N\O)C2 (configuration not stated)	> 100 µM	> 100 µM	> 100 µM		> 100 µM							
Cc1c(-c2coc(-c3ccc([N+](=O)[O-])cc3)n2)c(=O)n(-c2ccccc2)n1C	> 100 µM	> 100 µM	> 100 µM	> 100 µM		> 100 µM	> 100 µM	> 100 µM	> 100 µM			
CC(C)CCNC(=O)c1ccc(CNC(=O)/C=C/c2ccc3ccccc3c2)cc1	> 100 µM	> 100 µM	> 100 µM	> 100 µM	> 100 µM	> 100 µM						
CCOC(=O)c1c2ccccc2n2c(=O)n(-c3ccc(OC)cc3)nnc12	> 100 µM	> 100 µM	> 100 µM	> 91.1 µM	> 100 µM	> 100 µM						
COc1ccc(C[C@@H](C(=O)N[C@@H](C)C(N)=O)N(C)C(=O)[C@@H]2CCCN2C(=O)[C@H](CC(C)C)NC(=O)C(C)NC(=O)OCc2ccccc2)cc1 (some centres not stated) (Cbz-[ξA]LP[NMeY](Me)A-NH2)	> 100 µM	> 100 µM	> 100 µM	> 100 µM	> 100 µM	> 100 µM						
O=c1ccn(C/C=C/c2ccccc2)c(=S)n1C/C=C/c1ccccc1	> 100 µM	> 100 µM	> 100 µM		> 100 µM	> 100 µM						
CNC(=O)O/N=C1\N(C)CN(c2ccccc2)C12CCN(CCCC(=O)c1ccc(F)cc1)CC2	> 100 µM	> 100 µM	> 100 µM	> 100 µM	> 100 µM	> 100 µM						
Nc1c(F)c(F)c2c(c1F)N(CCCCCl)c1ccccc1S2	> 100 µM		> 100 µM	> 100 µM	> 100 µM	> 100 µM						

SMILES	TGI [1]	TGI [2]	TGI [3]	TGI [4]	TGI [5]	TGI [6]	TGI [7]	TGI [8]	TGI [9]	GI50 [7]	GI50 [9]	GI50 [6]
O=C(Nc1ccccc1)OCCN=c1c2ccccc2ccc2ccccc12	44.5 µM	92.4 µM	> 100 µM	42.2 µM	51.1 µM							
C1CSCCSCCSCCSCCS1	> 100 µM	> 100 µM	> 100 µM	> 100 µM	> 100 µM	> 100 µM						
CSC12c3cc(C)n(-c4ccc(I)cc4)c3CC(C)(C)CN1C(=O)C2Oc1ccccc1 (configuration not stated)	> 100 µM	> 100 µM	> 100 µM	> 100 µM	> 100 µM	> 100 µM						
CN1C(=O)C(=Cc2ccc(Br)cc2)C(=O)N(C)C1=O	> 100 µM	> 100 µM	> 100 µM	> 100 µM	> 100 µM	> 100 µM						
COc1ccc(/C=C2/SC(=Nc3ccccc3)N(NC(=O)Cc3ccccc3)C2=O)cc1		> 100 µM	> 100 µM	> 100 µM	> 100 µM	> 100 µM						
O=c1cccccc1[O-].O=c1cccccc1[O-].O=c1cccccc1[O-].[Nd+3]	> 100 µM	> 100 µM	> 100 µM	> 100 µM	> 100 µM	> 100 µM	> 100 µM		> 100 µM	14.3 µM	20.6 µM	81.4 µM
Cc1cc2c(cc1Cl)SC(NNCCO)=NS2(=O)=O	> 100 µM	> 100 µM		> 100 µM	> 100 µM							
N#Cc1c(-c2ccccc2)cn(C(=O)c2ccccc2)c1N	> 100 µM	> 100 µM	> 100 µM	> 100 µM	> 100 µM							
COc1ccccc1N1CCN(S(=O)(=O)c2ccc(Cl)cc2)C1=N		> 100 µM	> 100 µM	> 100 µM	> 100 µM	> 100 µM						
c1ccc2c(c1)CCN1CCc3ccccc3C1C2 (configuration not stated)	> 100 µM	> 100 µM	> 100 µM	> 100 µM	> 100 µM	> 100 µM						
CC(CC(=O)N1C2CC3CCC2(CS1(=O)=O)C3(C)C)[Si](C)(C)C (configuration not stated)	> 100 µM	> 100 µM	> 100 µM	> 100 µM	> 100 µM							
COC(C)=NCCC1=CCCCC1		> 100 µM	> 100 µM	> 100 µM	> 100 µM	> 100 µM						
O=S(=O)(O)c1c(Cl)c(Cl)c(O)c2ncccc12	7.99 µM	41.6 µM	28.3 µM	> 83.6 µM	> 48.5 µM	26 µM						
Cc1cn(C2CC(O)C(Cn3nncc3Cn3cnc4c(N)ncnc43)O2)c(=O)[nH]c1=O (configuration not stated)	> 100 µM	> 100 µM	> 100 µM	> 100 µM		> 100 µM						
CCC1=CC(OCc2ccccc2)C(CCN(Cc2ccccc2)C(=O)OCc2ccccc2)C1 (configuration not stated)	32.7 µM	32.8 µM	32.1 µM	86.2 µM	> 100 µM	48.4 µM						
